Blank lines part the entries; values can stand above or below the molecule they belong to.
What was measured:
SirT1 (HCT116 cells) = target: T1, SirT1 (HCT116 cells) (Homo sapiens, UniProt Q96EB6); assay: whole cell sirtuin (SirT1) activity in HCT116 cells with Fluor-de-Lys-SirT1 substrate; type: cell-based
T1 construct: endogenous in cells; host or cells: HCT116
T1 sequence (Q96EB6 1-747): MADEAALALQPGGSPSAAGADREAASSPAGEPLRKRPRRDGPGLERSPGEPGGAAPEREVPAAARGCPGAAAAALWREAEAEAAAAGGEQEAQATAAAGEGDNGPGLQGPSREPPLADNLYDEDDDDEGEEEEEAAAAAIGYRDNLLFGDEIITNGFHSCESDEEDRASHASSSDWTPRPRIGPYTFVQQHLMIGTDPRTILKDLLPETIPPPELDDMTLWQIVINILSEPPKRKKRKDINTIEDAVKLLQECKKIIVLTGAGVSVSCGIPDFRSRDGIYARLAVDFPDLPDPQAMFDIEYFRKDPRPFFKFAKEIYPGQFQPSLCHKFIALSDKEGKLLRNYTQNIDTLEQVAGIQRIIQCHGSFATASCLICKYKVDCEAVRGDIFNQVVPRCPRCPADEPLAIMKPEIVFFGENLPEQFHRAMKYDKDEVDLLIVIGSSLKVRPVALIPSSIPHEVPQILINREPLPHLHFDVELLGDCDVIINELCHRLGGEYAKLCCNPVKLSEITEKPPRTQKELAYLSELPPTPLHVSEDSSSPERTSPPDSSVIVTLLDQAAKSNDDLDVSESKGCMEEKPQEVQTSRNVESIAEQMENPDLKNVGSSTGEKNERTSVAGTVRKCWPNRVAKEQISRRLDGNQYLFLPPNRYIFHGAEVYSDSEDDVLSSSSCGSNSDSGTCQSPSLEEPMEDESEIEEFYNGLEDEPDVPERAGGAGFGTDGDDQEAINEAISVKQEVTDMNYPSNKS
Excerpt: Cultured cells (HCT116) were trypsinized and counted by trypan blue exclusion. Live cells (2×10^5) were distributed to each well of the 96-well plate. […] Independently, we fixed concentrations of either Fluor-de-Lys-SirT1 substrate or Fluor-de-Lys-SirT2 in whole cells and analyzed the effect of exogeneous NAD+ concentration on whole cell sirtuin activity (FIG. 7b). […] Therefore the reading was done immediately after stopping.
Cultured HCT116 cells were counted and distributed to each well of the 96-well plate. […] After addition of Sirtuin substrate (Fluor-de-Lys-SirT1, 500 uM) or HDAC substrate Boc-Lys(Ac)-AMC (300 uM), the cells are further incubated for an additional 2 hours. Reaction was stopped and read as described in Examples 3 and 6. […] This observation is consistent with our finding in Example 7 that TSA can not inhibit class III (Sirtuins) in vitro.

HDAC (HCT116 cells) = assay: whole cell deacetylase (HDAC) assay in HCT116 cells with Boc-Lys(Ac)-AMC; type: cell-based, human; details: pre-incubated with inhibitors 16 hours, mean of at least 2 experiments
Protocol: (§1) Freshly trypsinized cells were dispensed into 96-well black Costar E1A/RIA plates (Corning Inc., Corning, N.Y.). Small molecule substrate Boc-Lys(Ac)-AMC (Bachem Biosciences Inc., King of Prussia, Philadelphia) was added to cell suspension with the final concentration of 300 uM. Cells were placed in 37° C. incubator with 5% CO2 for 90 minutes. Reaction was stopped by adding a freshly prepared Flouor-de-Lys™ deleveloper (Biomol, Plymouth Meeting, Philadelphia) with 1 uM TSA (Biomol) in assay buffer (25 mM Tris, HCl pH8.0, 137 mM NaCl, 2.7 mM KCl, 1 mM MgCl2) plus 1% NP-40. With the presence of 1% NP-40, both excellular and intracellular HDAC activity was measured in cultured cells altogether.
(§2) HDAC enzyme assay in intact cells was carried out as described in Example 3.
Cultured HCT116 cells were counted and distributed to each well of the 96-well plate. […] After addition of Sirtuin substrate (Fluor-de-Lys-SirT1, 500 uM) or HDAC substrate Boc-Lys(Ac)-AMC (300 uM), the cells are further incubated for an additional 2 hours. Reaction was stopped and read as described in Examples 3 and 6.

HDAC (A549 cells) = assay: whole cell deacetylase (HDAC) assay in A549 cells with Boc-Lys(Ac)-AMC; type: cell-based, human; details: pre-incubated with inhibitors 16 hours, mean of at least 2 experiments
Protocol: as §1, §2

HDAC (Du145 cells) = assay: whole cell deacetylase (HDAC) assay in Du145 cells with Boc-Lys(Ac)-AMC; type: cell-based, human; details: pre-incubated with inhibitors 16 hours, mean of at least 2 experiments
Protocol: as §1, §2

HDAC (Panc-1 cells) = assay: whole cell deacetylase (HDAC) assay in Panc-1 cells with Boc-Lys(Ac)-AMC; type: cell-based, human; details: pre-incubated with inhibitors 16 hours, mean of at least 2 experiments
Protocol: as §1, §2

HDAC (293T cells) = assay: whole cell deacetylase (HDAC) assay in 293T cells with Boc-Lys(Ac)-AMC; type: cell-based, human; details: pre-incubated with inhibitors 16 hours, mean of at least 2 experiments
Protocol: as §1, §2

HDAC (Jurkat T cells) = assay: whole cell deacetylase (HDAC) assay in Jurkat T cells with Boc-Lys(Ac)-AMC; type: cell-based, human; details: pre-incubated with inhibitors 16 hours, mean of at least 2 experiments
Protocol: as §1, §2

recombinant Sirt1 = target: T2, recombinant Sirt1 (Homo sapiens, UniProt Q96EB6); assay: recombinant Sirt1 enzyme assay in vitro (Fluor-de-Lys-SirT1 substrate); type: biochemical
T2 construct: purchased Biomol
T2 sequence (Q96EB6 1-747): T1 sequence (Q96EB6 1-747)
Excerpt: (§3) Human SirT1, 2, 3 recombinant enzymes were purchased from Biomol (Biomol, Plymouth Meeting, Philadelphia).
(§4) Reaction is read as described in Example 3.

recombinant Sirt3 = target: T3, recombinant Sirt3 (Homo sapiens, UniProt Q9NTG7); assay: recombinant Sirt3 enzyme assay in vitro (Fluor-de-Lys-SirT2 substrate); type: biochemical; details: substrate FldSirt2; activation; read-out: EC50 to activate recombinant Sirt3 in vitro
T3 construct: purchased Biomol
T3 sequence (Q9NTG7 1-399): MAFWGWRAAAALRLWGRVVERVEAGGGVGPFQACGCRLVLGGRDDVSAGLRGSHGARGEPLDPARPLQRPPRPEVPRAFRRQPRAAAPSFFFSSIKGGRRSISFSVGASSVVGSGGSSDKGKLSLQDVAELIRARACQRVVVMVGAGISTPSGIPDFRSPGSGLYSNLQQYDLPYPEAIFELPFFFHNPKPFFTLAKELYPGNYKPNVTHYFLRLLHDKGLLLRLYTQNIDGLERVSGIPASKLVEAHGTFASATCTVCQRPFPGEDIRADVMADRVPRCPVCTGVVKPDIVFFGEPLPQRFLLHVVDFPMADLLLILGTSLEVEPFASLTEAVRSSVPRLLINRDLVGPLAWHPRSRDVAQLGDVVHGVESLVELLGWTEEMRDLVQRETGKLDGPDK
Excerpt: as §3, §4

recombinant Sirt2 = target: T4, recombinant Sirt2 (Homo sapiens, UniProt Q8IXJ6); assay: recombinant Sirt2 enzyme assay in vitro (Fluor-de-Lys-SirT2 substrate); type: biochemical; details: substrate FldSirt2; activation; read-out: EC50 to activate recombinant Sirt2 in vitro
T4 construct: purchased Biomol
T4 sequence (Q8IXJ6 1-389): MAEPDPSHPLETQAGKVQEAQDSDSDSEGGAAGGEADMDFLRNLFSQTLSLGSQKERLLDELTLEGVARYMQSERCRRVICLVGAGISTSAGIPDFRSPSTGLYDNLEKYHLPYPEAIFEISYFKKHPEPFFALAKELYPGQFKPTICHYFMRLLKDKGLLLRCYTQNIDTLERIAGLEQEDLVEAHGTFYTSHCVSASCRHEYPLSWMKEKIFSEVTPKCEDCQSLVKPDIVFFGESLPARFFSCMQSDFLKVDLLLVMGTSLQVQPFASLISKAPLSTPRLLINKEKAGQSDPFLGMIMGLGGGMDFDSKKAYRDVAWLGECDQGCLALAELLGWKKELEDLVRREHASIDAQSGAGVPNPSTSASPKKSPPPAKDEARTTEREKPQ
Excerpt: as §3, §4

quenching of the whole cell sirtuin reaction (SirT1 (HCT116 cells); HCT116 whole cells): ineffective at quenching the reaction
SMILES: NC(=O)c1cccnc1 [nicotinamide]

IC50 (HDAC (HCT116 cells)): 3 µM
IC50 (HDAC (A549 cells)): 0.4 µM
IC50 (HDAC (Du145 cells)): 0.3 µM
IC50 (HDAC (Panc-1 cells)): 0.5 µM
IC50 (HDAC (Jurkat T cells)): 0.3 µM
SMILES: Nc1ccccc1NC(=O)c1ccc(CNC(=O)OCc2cccnc2)cc1 [MS-275]
IC50 (HDAC (293T cells)): 2 µM

EC50 (recombinant Sirt3): > 2000 µM
EC50 (recombinant Sirt2): 912 µM
SMILES: Oc1ccc(C=Cc2cc(O)cc(O)c2)cc1 [Resveratrol]
activation of recombinant Sirt1 in vitro (recombinant Sirt1): can activate Sirt1 enzymes in vitro in a dose dependent manner
activation of whole cell sirtuin (SirT1) activity (SirT1 (HCT116 cells); HCT116 cells, 1.5 hour pre-incubation): could activate whole cell sirtuin (SirT1) activity in a dose-dependent manner

effect of exogenous NAD+ on whole cell sirtuin activity (SirT1 (HCT116 cells); HCT116 cells, fixed Fluor-de-Lys-SirT1 or Fluor-de-Lys-SirT2 substrate): no effect on whole cell sirtuin activity
SMILES: NC(=O)c1ccc[n+]([C@@H]2O[C@H](COP(=O)([O-])OP(=O)(O)OC[C@H]3O[C@@H](n4cnc5c(N)ncnc54)[C@H](O)[C@@H]3O)[C@@H](O)[C@H]2O)c1 [NAD+]
